According to patent publication US10487071B2, “Bis-triazole compounds with anti-biofilm and anti-corrosion properties” (Université de Toulon, priority 2015, dated 2019):
Read-outs that look alike come from different tables or passages of the source.

Key:
[1] = system: Pseudoalteromonas lipolytica (TC8); experiment: Anti-adhesion test, strain TC8; format: cell-based; conditions: for activity at 200 µM: 15 h, read-out: % of adhesion at 200 μM, TC8; for EC50: read-out: EC50 (effective concentration to inhibit 50% of the adhesion), TC8
Description: (§1) The anti-adhesion bioassays and toxicity tests are adapted from those disclosed in M. Camps, J.-F. Briand, L. Guentas-Dombrowsky, G. Culioli, A. Bazire and Y. Blache, Mar. Poll.
(§2) Bacterial strains were grown on Väätänen nine-salts solution (VNSS). When the stationary phase was reached, the bacterial suspension was centrifuged. Cells were then diluted in sterile artificial sea water (ASW) and introduced in microtiter plates (sterile black PS; Nunc, Fisher Scientific, France) with the tested compound (at eight concentrations in three replicates) in the presence of three controls: (i) non-specific staining control, (ii) adhesion control, and (iii) positive control. The maximum percentage of solvent (DMSO 2%) used to dilute the tested compound was also tested in triplicate as additional control. After incubation during an optimized adhesion time (moderately 15 h), non-adhered bacteria were eliminated and adhered cells were quantified after SYTO 61 (1 μM) staining. A percentage of inhibition was calculated per well. A sigmoid dose-response curve was obtained by plotting the percentage of inhibition as a function of the log of tested compound concentration, after mean (n=3) and standard deviation (SD) calculation per triplicate for each concentration. EC50 values were then calculated for each compound.

[2] = Gravimetry (weight loss), corrosion inhibition; conditions: mild steel in 1N HCl
Description: The corrosion rates were determined by electrochemical impedance spectroscopy measurements and gravimetry.
Weight loss measurements were performed on 2.5×2.0×0.1 cm rectangular mild steel coupons. The mild steel coupons were immersed into non-de-aerated HCl 1N solution in absence and presence of different concentrations of compounds of general formula (I). After the elapsed time, the coupons were taken out, washed, dried and weighed accurately. Experiments were duplicated.
Weight loss experiments were done to confirm the corrosion inhibitive properties of AS164.
The inhibition efficiency, IE (%), was estimated from the weight loss experiments using the following equation:
[formula] wherein CR^o and CR are respectively the corrosion rate in the absence and presence of AS164.

[3] = system: Pseudoalteromonas ulvae (TC14); experiment: Anti-adhesion test, strain TC14; format: cell-based; conditions: Pseudoalteromonas ulvae; for activity at 200 µM: 15 h; for EC50: read-out: EC50 (effective concentration to inhibit 50% of the adhesion)
Description: as §2
Pseudoalteromonas ulvae (TC14) was isolated in June 2010 in the Military Harbor of Toulon (Mediterranean Sea, France) as described in F. Brian-Jaisson, A. Ortalo-Magné, L. Guentas-Dombrowsky, F. Armougom, Y. Blache, M. Molmeret, Microb. Ecol., 2014, 68, 94-110.

Paracoccus sp. (4M6) = experiment: Anti-adhesion test, strain 4M6; format: cell-based; conditions: for activity at 200 µM: 15 h, read-out: % of adhesion at 200 μM, 4M6; for EC50: read-out: EC50 (effective concentration to inhibit 50% of the adhesion), 4M6
Description: as §1, §2

Row | Compound | activity at 200 µM ([1]; Pseudoalteromonas lipolytica) [%] | IE % ([2]; 0.1 ppm) [%] | IE % ([2]; 0.3 ppm) [%] | IE % ([2]; 0.5 ppm) [%] | IE % ([2]; 2 ppm) [%] | IE % ([2]; 10 ppm) [%] | activity at 200 µM [3] [%] | EC50 [3] [µM] | activity at 200 µM (Paracoccus sp. (4M6); Paracoccus) [%] | EC50 ([1]; Pseudoalteromonas lipolytica) [µM] | EC50 (Paracoccus sp. (4M6); Paracoccus) [µM] | EC50 ([1]; strain TC8) [µM] | EC50 (Paracoccus sp. (4M6); strain 4M6) [µM]
1 | CN(C)CCCOc1ccc(CCn2cc(COCc3cn(CCc4ccc(OCCCN(C)C)c(Br)c4)nn3)nn2)cc1Br [AS173, 3-(4-(2-(4-(((1-(4-(3-(dimethylamino)propoxy)-3-bromophenethyl)-1H-1,2,3-triazol-4-yl)methoxy)methyl)-1H-1,2,3-triazol-1-yl)ethyl)-2-bromophenoxy)-N,N-dimethylpropan-1-amine] | 51.6 ± 1 | 46.78 | 86.70 | 92.47 | 95.77 | 97.95 | 41.7 ± 1.6 | 122 ± 59.1 | 53.7 ± 4 | – | – | – | –
2 | Oc1ccc(CCn2cc(CCCCc3cn(CCc4ccc(O)c(Br)c4)nn3)nn2)cc1Br [NT22, 4-(2-(4-(4-(1-(3-bromo-4-hydroxyphenethyl)-1H-1,2,3-triazol-4-yl)butyl)-1H-1,2,3-triazol-1-yl)ethyl)-2-bromophenol] | 85.6 ± 2.1 | – | – | – | – | – | 54.4 ± 1.7 | – | 52.4 ± 2.3 | – | – | – | –
3 | CN(C)CCCOc1ccc(CCn2cc(CNCc3cn(CCc4ccc(OCCCN(C)C)c(Br)c4)nn3)nn2)cc1Br [AS174] | 55.4 ± 0.4 | 53.41 | 87.00 | 91.72 | 95.98 | 97.17 | 45 ± 0.8 | – | 56.3 ± 2.4 | 185 ± 16.2 | – | – | –
4 | Oc1ccc(CCn2cc(COCc3cn(CCc4ccc(O)c(Br)c4)nn3)nn2)cc1Br [NT26] | 50.3 ± 5.79 | – | – | – | – | – | 40.2 ± 3.3 | 127 ± 27.5 | 47.8 ± 0.1 | 195 ± 10.7 | 198 ± 4.1 | – | –
5 | tributyltin oxide [TBTO, reference compound] | – | – | – | – | – | – | – | – | – | – | – | 7 ± 3 | 4 ± 3
6 | CN(C)CCOc1ccc(CCn2cc(CCCCCCc3cn(CCc4ccc(OCCN(C)C)c(Br)c4)nn3)nn2)cc1Br [AS160, 2-(4-(2-(4-(6-(1-(4-(2-(dimethylamino)ethoxy)-3-bromophenethyl)-1H-1,2,3-triazol-4-yl)hexyl)-1H-1,2,3-triazol-1-yl)ethyl)-2-bromophenoxy)-N,N-dimethylethanamine] | 54.3 ± 10.8 | 71.40 | 92.14 | 92.66 | 96.06 | 97.03 | 67.4 ± 4 | – | 59.5 ± 2.2 | – | – | – | –
7 | CN(C)CCOc1ccc(CCn2cc(-c3cccc(-c4cn(CCc5ccc(OCCN(C)C)c(Br)c5)nn4)c3)nn2)cc1Br [AS161, 2-(4-(2-(4-(3-(1-(4-(2-(dimethylamino)ethoxy)-3-bromophenethyl)-1H-1,2,3-triazol-4-yl)phenyl)-1H-1,2,3-triazol-1-yl)ethyl)-2-bromophenoxy)-N,N-dimethylethanamine] | – | 86.75 | 86.21 | 94.07 | 97.10 | 98.33 | – | – | – | – | – | – | –
8 | CN(C)CCCOc1ccc(CCn2cc(CCCc3cn(CCc4ccc(OCCCN(C)C)c(Br)c4)nn3)nn2)cc1Br [AS168, 3-(4-(2-(4-(3-(1-(4-(3-(dimethylamino)propoxy)-3-bromophenethyl)-1H-1,2,3-triazol-4-yl)propyl)-1H-1,2,3-triazol-1-yl)ethyl)-2-bromophenoxy)-N,N-dimethylpropan-1-amine] | 59.9 ± 6.4 | – | – | – | – | – | 53.8 ± 5.9 | – | 77.1 ± 2.4 | – | – | – | –
9 | CN(C)CCOc1ccc(CCCn2cc(-c3ccc(-c4cn(CCCc5ccc(OCCN(C)C)c(Br)c5)nn4)cc3)nn2)cc1Br [SA31, 2-(4-(3-(4-(4-(1-(3-(4-(2-(dimethylamino)ethoxy)-3-bromophenyl)propyl)-1H-1,2,3-triazol-4-yl)phenyl)-1H-1,2,3-triazol-1-yl)propyl)-2-bromophenoxy)-N,N-dimethylethanamine] | – | 80.79 | 93.00 | 95.44 | 96.17 | 96.56 | – | – | – | – | – | – | –
10 | COc1ccc(CCn2cc(CCCc3cn(CCc4ccc(OC)c(Br)c4)nn3)nn2)cc1Br [NT10, 1-(3-bromo-4-methoxyphenethyl)-4-(3-(1-(3-bromo-4-methoxyphenethyl)-1H-1,2,3-triazol-4-yl)propyl)-1H-1,2,3-triazole] | 50 ± 4.9 | – | – | – | – | – | 50.4 ± 2.2 | – | 49.2 ± 0.8 | – | 182 ± 15.2 | – | –
11 | CN(C)CCCOc1ccc(CCn2cc(-c3cccc(-c4cn(CCc5ccc(OCCCN(C)C)c(Br)c5)nn4)c3)nn2)cc1Br [AS171, 3-(4-(2-(4-(3-(1-(4-(3-(dimethylamino)propoxy)-3-bromophenethyl)-1H-1,2,3-triazol-4-yl)phenyl)-1H-1,2,3-triazol-1-yl)ethyl)-2-bromophenoxy)-N,N-dimethylpropan-1-amine] | – | 53.82 | 86.91 | 91.72 | 97.25 | 98.51 | – | – | – | – | – | – | –
12 | CN(C)CCOc1ccc(CCn2cc(CCCCc3cn(CCc4ccc(OCCN(C)C)c(Br)c4)nn3)nn2)cc1Br [AS159, 2-(4-(2-(4-(4-(1-(4-(2-(dimethylamino)ethoxy)-3-bromophenethyl)-1H-1,2,3-triazol-4-yl)butyl)-1H-1,2,3-triazol-1-yl)ethyl)-2-bromophenoxy)-N,N-dimethylethanamine] | 58.4 ± 4.3 | 39.96 | 89.62 | 91.95 | 95.63 | 97.30 | 61.5 ± 1 | – | 57.4 ± 1.6 | – | – | – | –
13 | COc1ccc(CCn2cc(CNCc3cn(CCc4ccc(OC)c(Br)c4)nn3)nn2)cc1Br [NT7, bis((1-(3-bromo-4-methoxyphenethyl)-1H-1,2,3-triazol-4-yl)methyl)amine] | 48.2 ± 2.1 | – | – | – | – | – | 37.4 ± 0.1 | 138 ± 8.7 | 46.3 ± 2.7 | 188 ± 3 | 194 ± 8 | – | –
14 | Oc1ccc(CCn2cc(CCCc3cn(CCc4ccc(O)c(Br)c4)nn3)nn2)cc1Br [NT21, 4-(2-(4-(3-(1-(3-bromo-4-hydroxyphenethyl)-1H-1,2,3-triazol-4-yl)propyl)-1H-1,2,3-triazol-1-yl)ethyl)-2-bromophenol] | 63 | – | – | – | – | – | 53 ± 4 | – | 83.4 ± 3.9 | – | – | – | –
15 | CN(C)CCOc1ccc(CCn2cc(-c3ccc(-c4cn(CCc5ccc(OCCN(C)C)cc5)nn4)cc3)nn2)cc1 [SA11, 2-(4-(2-(4-(4-(1-(4-(2-(dimethylamino)ethoxy)phenethyl)-1H-1,2,3-triazol-4-yl)phenyl)-1H-1,2,3-triazol-1-yl)ethyl)phenoxy)-N,N-dimethylethanamine] | – | 90.50 | 93.32 | 95.49 | 96.95 | 97.11 | – | – | – | – | – | – | –
16 | Oc1ccc(CCn2cc(-c3cccc(-c4cn(CCc5ccc(O)c(Br)c5)nn4)c3)nn2)cc1Br [NT24] | 66.5 ± 11.6 | – | – | – | – | – | 56.7 ± 1.3 | – | 61.5 ± 4.2 | – | – | – | –
17 | CN(C)CCOc1ccc(CCn2cc(CCCc3cn(CCc4ccc(OCCN(C)C)c(Br)c4)nn3)nn2)cc1Br [AS158] | 57 ± 2.2 | 53.41 | 87.00 | 91.72 | 95.98 | 97.17 | 55.8 ± 3.8 | – | 51.5 ± 3 | – | – | – | –
18 | COc1ccc(CCn2cc(COCc3cn(CCc4ccc(OC)c(Br)c4)nn3)nn2)cc1Br [NT6, 4-(((1-(3-bromo-4-methoxyphenethyl)-1H-1,2,3-triazol-4-yl)methoxy)methyl)-1-(3-bromo-4-methoxyphenethyl)-1H-1,2,3-triazole] | 42.7 ± 6.5 | – | – | – | – | – | 38.4 ± 7.4 | 160 ± 33.5 | 44.9 ± 3.1 | 181 ± 21.3 | 164 ± 6.3 | – | –
19 | COc1ccc(CCn2cc(CCCCc3cn(CCc4ccc(OC)c(Br)c4)nn3)nn2)cc1Br [NT3, 1-(3-bromo-4-methoxyphenethyl)-4-(4-(1-(3-bromo-4-methoxyphenethyl)-1H-1,2,3-triazol-4-yl)butyl)-1H-1,2,3-triazole] | 56.9 ± 1.7 | – | – | – | – | – | 53.3 ± 6.3 | – | 50.9 ± 0.3 | – | – | – | –
